From patent US20230414839A1, “COATED MEDICAL PRODUCT” (HEMOTEQ AG, priority 2020, published 2023)
Where two headings read alike, the source gives them in different places.

Assays:
[1] = cited from earlier work
[2] = crystal suspensions of microcrystalline everolimus in different solvent mixtures (Example 6); assay type: physicochemical; design: key: +++: good; +/−: average; −−−: poor; conditions: 770 mg trioctanoylglycerol per 100 mL
Description: To prepare the solutions, 770 mg of trioctanoylglycerol was dissolved in the polar solvent. Then the nonpolar solvent was added. It was then homogenized and filtered.
To test whether crystal suspensions could be prepared, 10 mL of each of the solutions was carefully added to 200 mg of everolimus in the form of microcrystals at room temperature. After combining, it was tested whether stable crystal suspensions were obtained.

[3] = preparation and stability of crystal suspensions of microcrystalline rapamycin / everolimus in solutions of different tri-O-acylglycerols (Examples 2, 3); conditions: ethyl acetate/heptane solution; standing and temperature elevation
Description: In the first step, solutions of tri-O-acylglycerols were first prepared in a solvent mixture. Subsequently, the solutions were combined with microcrystals of rapamycin and everolimus to investigate which tri-O-acylglycerols could be used to obtain stable crystal suspensions. The composition of the solvents and solvent mixture varied depending on the active agent used. The solutions and solvent mixtures prepared in the example apply to rapamycin (SIR) and everolimus (EVR). For the preparation of the solutions, an ethyl acetate/heptane solvent mixture was used here as an example.
To prepare the solutions, 770 mg of the respective tri-O-acylglycerol and optionally 150 mg BHT were dissolved in 14 g ethyl acetate (15.6 mL). Then, 57.4 g of n-heptane (84.4 mL) was added. Subsequently, homogenization and filtration were performed. The total volume of the solvent mixture is 100 mL.
To a precisely weighed amount of dry microcrystals of the previously prepared limus active agent, a defined amount of the solutions containing tri-O-acylglycerol and optionally antioxidant is carefully added. It was investigated whether the microcrystals of the limus active agent are not soluble in the solutions and whether suspensions are formed.
To check whether crystal suspension can be prepared, to each 200 mg of rapamycin in the form of microcrystals or 200 mg of everolimus in the form of microcrystals were carefully added 10 mL of one of the solutions 1a) to 1t) at room temperature. Three mixtures of 10 mL of solution for each solution were prepared. After combining, it was tested whether the microcrystals of limus active agents dissolved directly in the solutions. For solutions where there was no immediate dissolution of the microcrystals of the limus active agents, the suspensions of the solutions without antioxidant were allowed to stand for a period of 100 h and tested again to see if the microcrystals of the limus active agents dissolved.
Three mixtures of 10 mL of solution for each solution were prepared. After combining, it was tested whether the microcrystals of limus active agents dissolved directly in these solutions. For solutions where there was no immediate dissolution of the microcrystals of the limus active agents, the suspensions of the solutions without antioxidant were allowed to stand for a period of 100 hours and tested again to see if the microcrystals of the limus active agents dissolved.

[4] = cited from earlier work; remark: listed apart in the source
[5] = non-solvents, rounded values (Table 2)
[6] = nonpolar organic solvents, rounded values (Table 4)
[7] = nonpolar organic solvents (Table 8)
[8] = polar organic solvents, rounded values (Table 6)
[9] = polar organic solvents (Table 7)

Compound: C1COCCO1 [1,4-Dioxane]
- log KOW [1]: about −0.4

Compound: CC(C)CC(C)(C)C [2,2,4-Trimethylpentane]
- logKOW [1, 5]: 4.1

Compound: CCC(C)(C)C [2,2-Dimethylbutane]
- logKOW [1, 5]: 3.8

Compound: CCCC(C)(C)C [2,2-Dimethylpentane]
- logKOW [1, 5]: 3.8

Compound: CCC(C)C(C)C (stereo not shown) [2,3-Dimethylpentane]
- logKOW [1, 5]: 3.8

Compound: CC(C)Cc1ccccc1 [2-Methyl-1-phenylpropane]
- logKOW [1, 6]: 3.4

Compound: CCCCC(C)C [2-Methylhexane]
- logKOW [1, 5]: 3.7

Compound: CCCC(C)C [2-Methylpentane]
- logKOW [1, 5]: 3.6

Compound: CCC(C)c1ccccc1 (stereo not shown) [2-Phenylbutane]
- logKOW [1, 6]: 3.4

Compound: COc1ccccc1 [Anisol]
- logKOW [1, 6]: 2.1

Compound: Clc1ccccc1 [Chlorobenzene]
- log KOW [1]: about 2.9
- logKOW [1, 6]: 2.9

Compound: CC(C)c1ccccc1 [Cumol]
- logKOW [1, 6]: 3.4

Compound: C1CCCCCCCCC1 [Cyclodecane]
- logKOW [1, 5]: 5.5

Compound: C1CCCCCC1 [Cycloheptane]
- logKOW [1, 5]: 4

Compound: C1CCCCCCCC1 [Cyclononan]
- logKOW [1, 5]: 5.1

Compound: C1CCCC1 [Cyclopentane]
- logKOW [1, 5]: 3.0
- logKOW [1, 7]: 3.00

Compound: CCCCCCCCCC [Decan]
- logKOW [1, 5]: 6.3
- logKOW [1, 7]: 6.25

Compound: CCCOCCC [Dipropyl ether]
- logKOW [1, 8]: +2.0

Compound: CCOc1ccccc1 [Ethoxybenzene]
- logKOW [1, 6]: 2.5

Compound: CCOC(C)=O [Ethyl acetate]
- logKOW [1, 9]: 0.73
- logKOW [1, 8]: +0.7

Compound: CCc1ccccc1 [Ethylbenzene]
- logKOW [1, 6]: 3.2

Compound: CO[C@H]1C[C@@H]2CC[C@@H](C)[C@@](O)(O2)C(=O)C(=O)N2CCCC[C@H]2C(=O)O[C@H]([C@H](C)C[C@@H]2CC[C@@H](OCCO)[C@H](OC)C2)CC(=O)[C@H](C)/C=C(\C)[C@@H](O)[C@@H](OC)C(=O)[C@H](C)C[C@H](C)/C=C/C=C/C=C/1C [Everolimus, 40-O-(2-hydroxyethyl)rapamycin]
- Crystal suspension ([2]; Acetone/Cyclohexane 10:90 (v/v)): +++
- Crystal suspension ([2]; Acetone/Cyclohexane 30:70 (v/v)): +/−
- Crystal suspension ([2]; Acetone/Cyclohexane 40:60 (v/v)): +/−
- Crystal suspension ([2]; Acetone/Cyclohexane 50:50 (v/v)): −−−
- Crystal suspension ([2]; Acetone/Cyclohexane 60:40 (v/v)): −−−
- Crystal suspension ([2]; Acetone/Heptane 10:90 (v/v)): +++
- Crystal suspension ([2]; Acetone/Heptane 30:70 (v/v)): +/−
- Crystal suspension ([2]; Acetone/Heptane 40:60 (v/v)): +/−
- Crystal suspension ([2]; Acetone/Heptane 50:50 (v/v)): −−−
- Crystal suspension ([2]; Acetone/Heptane 60:40 (v/v)): −−−
- Crystal suspension ([2]; Acetone/Hexane 10:90 (v/v)): +++
- Crystal suspension ([2]; Acetone/Hexane 30:70 (v/v)): +/−
- Crystal suspension ([2]; Acetone/Hexane 40:60 (v/v)): +/−
- Crystal suspension ([2]; Acetone/Hexane 50:50 (v/v)): −−−
- Crystal suspension ([2]; Acetone/Hexane 60:40 (v/v)): −−−
- Crystal suspension ([2]; Ethanol/Cyclohexane 10:90 (v/v)): +++
- Crystal suspension ([2]; Ethanol/Cyclohexane 40:60 (v/v)): +/−
- Crystal suspension ([2]; Ethanol/Cyclohexane 50:50 (v/v)): −−−
- Crystal suspension ([2]; Ethanol/Cyclohexane 60:40 (v/v)): −−−
- Crystal suspension ([2]; Ethanol/Heptane 10:90 (v/v)): +++
- Crystal suspension ([2]; Ethanol/Heptane 40:60 (v/v)): +/−
- Crystal suspension ([2]; Ethanol/Heptane 50:50 (v/v)): −−−
- Crystal suspension ([2]; Ethanol/Heptane 60:40 (v/v)): −−−
- Crystal suspension ([2]; Ethanol/Hexane 10:90 (v/v)): +++
- Crystal suspension ([2]; Ethanol/Hexane 40:60 (v/v)): +/−
- Crystal suspension ([2]; Ethanol/Hexane 50:50 (v/v)): −−−
- Crystal suspension ([2]; Ethanol/Hexane 60:40 (v/v)): −−−
- Crystal suspension ([2]; Ethyl acetate/Cyclohexane 10:90 (v/v)): +++
- Crystal suspension ([2]; Ethyl acetate/Cyclohexane 30:70 (v/v)): +++
- Crystal suspension ([2]; Ethyl acetate/Cyclohexane 40:60 (v/v)): +++
- Crystal suspension ([2]; Ethyl acetate/Cyclohexane 50:50 (v/v)): +/−
- Crystal suspension ([2]; Ethyl acetate/Cyclohexane 60:40 (v/v)): +/−
- Crystal suspension ([2]; Ethyl acetate/Heptane 10:90 (v/v)): +++
- Crystal suspension ([2]; Ethyl acetate/Heptane 30:70 (v/v)): +++
- Crystal suspension ([2]; Ethyl acetate/Heptane 40:60 (v/v)): +++
- Crystal suspension ([2]; Ethyl acetate/Heptane 50:50 (v/v)): +/−
- Crystal suspension ([2]; Ethyl acetate/Heptane 60:40 (v/v)): +/−
- Crystal suspension ([2]; Ethyl acetate/Hexane 10:90 (v/v)): +++
- Crystal suspension ([2]; Ethyl acetate/Hexane 30:70 (v/v)): +++
- Crystal suspension ([2]; Ethyl acetate/Hexane 40:60 (v/v)): +++
- Crystal suspension ([2]; Ethyl acetate/Hexane 50:50 (v/v)): +/−
- Crystal suspension ([2]; Ethyl acetate/Hexane 60:40 (v/v)): +/−
- Crystal suspension ([2]; iso-propanol/Cyclohexane 10:90 (v/v)): +++
- Crystal suspension ([2]; iso-propanol/Cyclohexane 30:70 (v/v)): +/−
- Crystal suspension ([2]; iso-propanol/Cyclohexane 40:60 (v/v)): +/−
- Crystal suspension ([2]; iso-propanol/Cyclohexane 50:50 (v/v)): −−−
- Crystal suspension ([2]; iso-propanol/Cyclohexane 60:40 (v/v)): −−−
- Crystal suspension ([2]; iso-propanol/Heptane 10:90 (v/v)): +++
- Crystal suspension ([2]; iso-propanol/Heptane 30:70 (v/v)): +/−
- Crystal suspension ([2]; iso-propanol/Heptane 40:60 (v/v)): +/−
- Crystal suspension ([2]; iso-propanol/Heptane 50:50 (v/v)): −−−
- Crystal suspension ([2]; iso-propanol/Heptane 60:40 (v/v)): −−−
- Crystal suspension ([2]; iso-propanol/Hexane 10:90 (v/v)): +++
- Crystal suspension ([2]; iso-propanol/Hexane 30:70 (v/v)): +/−
- Crystal suspension ([2]; iso-propanol/Hexane 40:60 (v/v)): +/−
- Crystal suspension ([2]; iso-propanol/Hexane 50:50 (v/v)): −−−
- Crystal suspension ([2]; iso-propanol/Hexane 60:40 (v/v)): −−−

Compound: OCC(O)CO [Glycerin]
- logKOW [1, 8]: −1.8

Compound: CCCCCCC [Heptane]
- logKOW [1, 5]: 4.5
- logKOW [1, 7]: 4.50

Compound: CCC(C)C [Isopentane]
- logKOW [1, 5]: 3.2

Compound: COC(C)=O [Methyl acetate]
- logKOW [1, 8]: +0.2

Compound: CC1CCCC1 [Methylcyclopentane]
- logKOW [1, 5]: 3.4

Compound: CN1CCCC1=O [N-methylpyrrolidone]
- logKOW [1, 8]: −0.5

Compound: CCCCCCCCC [Nonan]
- logKOW [1, 5]: 5.7
- logKOW [1, 7]: 5.65

Compound: CCCCCCCC [Octane]
- logKOW [1, 5]: 5.2
- logKOW [1, 7]: 5.15

Compound: CCC(=O)O [Propionic acid]
- logKOW [1, 9]: 0.32

Compound: CCCC(C)=O [Solution 2-Pentanone, 2-Pentanone]
- logKOW [1, 9]: 0.84
- logKOW [1, 8]: +0.9

Compound: FC(F)(F)C(F)(F)C(F)(F)C(F)(F)C(F)(F)C(F)(F)F [Tetradecafluorohexane]
- logKOW [1, 6]: 5.8

Compound: C1CCOC1 [Tetrahydrofuran (THF), Tetrahydrofuran]
- logKOW [1, 9]: 0.46
- logKOW [1, 8]: +0.5

Compound: CCCCCCCCCC(=O)OCC(COC(=O)CCCCCCCCC)OC(=O)CCCCCCCCC [Tridecanoylglycerol, tridecanoylglycerol]
- stability of the crystal suspension of microcrystalline everolimus and rapamycin with the tri-O-acylglycerol [3]: remained stable even after 100 h and under temperature elevation

Compound: CCCCCCCCC(=O)OCC(COC(=O)CCCCCCCC)OC(=O)CCCCCCCC [Trinonanoylglycerol, trinonanoylglycerol]
- solubility in water [4]: practically insoluble in water
- stability of the crystal suspension of microcrystalline everolimus and rapamycin with the tri-O-acylglycerol [3]: remained stable after 24-48 hours and under temperature elevation

Compound: CCCCCCCC(=O)OCC(COC(=O)CCCCCCC)OC(=O)CCCCCCC [Trioctanoylglycerol, trioctanoylglycerol]
- solubility in water [4]: practically insoluble in water
- stability of the crystal suspension of microcrystalline everolimus and rapamycin with the tri-O-acylglycerol [3]: remained stable even after 100 h and under temperature elevation

Compound: O [Water]
- logKOW ([1]; polar organic solvents, rounded orientation values (Table 5)): approx. −1.4

Compound: CC(C)Cc1ccccc1 [iso-butylbenzene]
- logKOW [1, 6]: 4.1

Compound: CCCOC(C)=O [n-Propyl acetate]
- logKOW [1, 8]: +1.4

Compound: Clc1ccccc1Cl [o-Dichlorobenzene]
- logKOW [1, 6]: 3.4

Compound: CC(C)(C)C1CCCCC1 [tert-butylcyclohexane]
- logKOW [1, 5]: 4.0
